Reference: EPA's ToxRefDB 2

What was measured:
rat [1] = settings: Carcinogenicity, fischer, Oral, Feed, dose end: 80 week, group: systemic
mouse [2] = settings: Carcinogenicity; b6c3f1; Oral; Feed; dose end: 80 week; group: systemic; systemic / pathology microscopic / liver / carcinoma + systemic / pathology microscopic / liver / neoplastic nodule + systemic / in life …
rabbit [3] = settings: Prenatal developmental toxicity study, new zealand white, Inhalation, Whole-Body, dose end: 18 GD, group: maternal
rat [4] = settings: Prenatal developmental toxicity study, sprague dawley, Inhalation, Whole-Body, dose end: 15 GD, group: maternal
rat [5] = settings: Subchronic inhalation toxicity, fischer, Whole-Body, dose end: 13 week, group: systemic
rat [6] = settings: Carcinogenicity, fischer, Oral, Feed, dose end: 104 week, group: systemic
mouse [7] = settings: Carcinogenicity, b6c3f1, Oral, Feed, dose end: 104 week, group: systemic
rat [8] = settings: Prenatal developmental toxicity study, sprague dawley, Oral, Gavage/Intubation, dose end: 15 GD, group: maternal
mouse [9] = settings: Subchronic oral toxicity in rodents, b6c3f1, Water, dose end: 13 week, group: systemic
mouse [10] = settings: Combined chronic toxicity/carcinogenicity; cd1; Inhalation; Whole-Body; dose end: 18 month; group: systemic; systemic / pathology microscopic / nose / [other] + systemic / pathology microscopic / nose / degeneration + systemic / pathology …
rabbit [11] = settings: Prenatal developmental toxicity study, new zealand white, Oral, Gavage/Intubation, dose end: 18 GD, group: maternal
rat [12] = settings: Sub-acute repeat dose toxicity, fischer, Oral, Water, dose end: 14 day, group: systemic
rat [13] = settings: Combined chronic toxicity/carcinogenicity; fischer; Inhalation; Whole-Body; dose end: 26 month; group: systemic; systemic / pathology microscopic / spleen / congestion + systemic / pathology microscopic / eye / degeneration + systemic / pathology …
rabbit [14] = settings: Prenatal developmental toxicity study, new zealand white, Oral, Gavage/Intubation, dose end: 18 GD, group: maternal; remark: listed apart in the source
rat [15] = settings: Prenatal developmental toxicity study, sprague dawley, Oral, Gavage/Intubation, dose end: 15 GD, group: maternal; remark: listed apart in the source
mouse [16] = settings: Sub-acute repeat dose toxicity, b6c3f1, Oral, Water, dose end: 14 day, group: systemic
rat [17] = settings: Multigenerational reproductive toxicity study, sprague dawley, Oral, Gavage/Intubation, dose end: 2 generation, group: parental
rat [18] = settings: Subchronic oral toxicity in rodents, fischer, Water, dose end: 13 week, group: systemic
rat [19] = settings: Neurotoxicity screening battery; sprague dawley; Oral; Gavage/Intubation; dose end: 13 week; group: cannot be grouped; systemic / hematology / [other] / [other] + systemic / hematology / heinz body / heinz body + systemic / hematology / leukocyte (wbc) count …
rat [20] = settings: Subchronic oral toxicity in rodents, other, Feed, dose end: 13 week, group: systemic
rat [21] = settings: Multigenerational reproductive toxicity study, Sprague Dawley, Oral, Feed, dose end: 2 generation
dog = settings: Combined chronic toxicity/carcinogenicity, beagle, Oral, Feed, dose end: 24 month, group: systemic
rat [22] = settings: Combined chronic toxicity/carcinogenicity, sprague dawley, Oral, Feed, dose end: 2 year, group: systemic
[23] = systemic / in life observation / body weight / body weight + systemic / pathology microscopic / thyroid gland / hyperplasia
[24] = systemic / in life observation / body weight / body weight + systemic / pathology microscopic / thyroid gland / hyperplasia + systemic / in …
[25] = systemic / in life observation / body weight / body weight gain + systemic / in life observation / clinical signs / oral discharge + …
[26] = systemic / in life observation / food consumption / food consumption
[27] = systemic / in life observation / body weight / body weight gain + systemic / in life observation / clinical signs / red or crusty deposits …
[28] = systemic / organ weight / adrenal gland / absolute + systemic / organ weight / adrenal gland / relative to body weight + systemic / organ …
[29] = systemic / in life observation / body weight / body weight + systemic / pathology microscopic / urinary bladder / hyperplasia
[30] = systemic / in life observation / body weight / body weight + systemic / pathology microscopic / urinary bladder / hyperplasia + systemic / …
[31] = systemic / in life observation / body weight / body weight
[32] = systemic / in life observation / body weight / body weight + systemic / pathology microscopic / liver / hepatocellular carcinoma + systemic…
[33] = systemic / hematology / methemoglobin / methemoglobin + systemic / hematology / reticulocyte / reticulocyte
[34] = systemic / hematology / methemoglobin / methemoglobin + systemic / hematology / reticulocyte / reticulocyte + systemic / in life observation…
[35] = systemic / pathology microscopic / nose / degeneration + systemic / pathology microscopic / spleen / hematopoietic cell proliferation + …
[36] = reproductive / reproductive performance / aborted / aborted + reproductive / reproductive performance / resorptions / resorptions + systemic…
[37] = systemic / in life observation / body weight / body weight + systemic / in life observation / water consumption / water consumption + …
[38] = systemic / in life observation / body weight / body weight + systemic / in life observation / body weight / body weight gain + systemic / in…
[39] = systemic / pathology gross / spleen / enlarged
[40] = systemic / in life observation / body weight / body weight + systemic / in life observation / water consumption / water consumption
[41] = systemic / hematology / erythrocyte (rbc) count differential / erythrocyte (rbc) + systemic / hematology / hematocrit (hct) / hematocrit (…
[42] = systemic / pathology microscopic / liver / hematopoietic cell proliferation + systemic / pathology microscopic / liver / hemosiderosis + …
[43] = systemic / hematology / erythrocyte (rbc) count differential / erythrocyte (rbc) + systemic / hematology / hemoglobin (hgb) / hemoglobin (…
[44] = systemic / in life observation / body weight / body weight gain
[45] = group: offspring, systemic / in life observation / body weight / offspring (pup) weight + developmental / offspring survival late / [other] / [other] + …
[46] = group: parental, systemic / in life observation / body weight / body weight + systemic / organ weight / adrenal gland / absolute
[47] = systemic / pathology microscopic / kidney / cellular alteration + systemic / pathology microscopic / kidney / pigmentation
[48] = systemic / pathology microscopic / kidney / cellular alteration + systemic / pathology microscopic / kidney / pigmentation + systemic / …

COP(=O)(OC)O/C(=C/Cl)c1cc(Cl)c(Cl)cc1Cl [Tetrachlorovinphos]
LOAEL (rat [1]; [23]): 212 mg/kg/day | NOAEL (rat [1]; [23]): < 212 mg/kg/day | LEL (rat [1]; [24]): 212 mg/kg/day | NEL (rat [1]; [24]): < 212 mg/kg/day | LEL (mouse [2]): 1200 mg/kg/day | LOAEL (mouse [2]): > 2400 mg/kg/day | NEL (mouse [2]): < 1200 mg/kg/day | NOAEL (mouse [2]): ≥ 2400 mg/kg/day

CC(C)c1ccccc1 [Cumene]
LOAEL (rabbit [3]; [25]): > 2300 ppm | NOAEL (rabbit [3]; [25]): ≥ 2300 ppm | LEL (rabbit [3]; [26]): 500 ppm | NEL (rabbit [3]; [26]): < 500 ppm | LOAEL (rat [4]; [27]): > 1200 ppm | NEL (rat [4]; [27]): 100 ppm | NOAEL (rat [4]; [27]): ≥ 1200 ppm | LEL (rat [4]; [26]): 500 ppm | NEL (rat [5]; systemic / in life observation / clinical signs / body temperature + systemic / in life observation / clinical signs / motor activity): 100 ppm | LEL (rat [5]; systemic / in life observation / clinical signs / motor activity + systemic / clinical chemistry / glucose / glucose + systemic / hematology…): 500 ppm | LOAEL (rat [5]; [28]): > 1200 ppm | NOAEL (rat [5]; [28]): ≥ 1200 ppm

COc1ccc(C)cc1N [2-Methoxy-5-methylaniline]
LOAEL (rat [6]; [29]): 250 mg/kg/day | NOAEL (rat [6]; [29]): < 250 mg/kg/day | LEL (rat [6]; [30]): 250 mg/kg/day | NEL (rat [6]; [30]): < 250 mg/kg/day | LOAEL (mouse [7]; [31]): 330 mg/kg/day | NOAEL (mouse [7]; [31]): < 330 mg/kg/day | LEL (mouse [7]; [32]): 330 mg/kg/day | NEL (mouse [7]; [32]): < 330 mg/kg/day

CCC(C)=NO [2-Butanone oxime]
LEL (rat [8]; [33]): 25 mg/kg/day | NEL (rat [8]; [33]): < 25 mg/kg/day | LOAEL (rat [8]; [34]): > 400 mg/kg/day | NOAEL (rat [8]; [34]): ≥ 400 mg/kg/day | LOAEL (mouse [9]; systemic / pathology microscopic / nose / degeneration + systemic / pathology microscopic / spleen / hematopoietic cell proliferation): 755 mg/kg/day | NEL (mouse [9]; [35]): 110 mg/kg/day | NOAEL (mouse [9]; [35]): 515 mg/kg/day | LEL (mouse [9]; systemic / pathology microscopic / urinary bladder / hyperplasia): 200 mg/kg/day | LEL (mouse [10]): 15 ppm | LOAEL (mouse [10]): > 375 ppm | NEL (mouse [10]): < 15 ppm | NOAEL (mouse [10]): ≥ 375 ppm | LOAEL (rabbit [11]; [36]): > 80 mg/kg/day | NOAEL (rabbit [11]; [36]): ≥ 80 mg/kg/day | LEL (rabbit [11]; [33]): 10 mg/kg/day | NEL (rabbit [11]; [33]): < 10 mg/kg/day | LOAEL (rat [12]; [31]): 280 mg/kg/day | NEL (rat [12]; [37]): 70 mg/kg/day | NOAEL (rat [12]; [37]): 130 mg/kg/day | LEL (rat [12]; systemic / in life observation / water consumption / water consumption + systemic / organ weight / spleen / absolute + systemic / organ …): 130 mg/kg/day | LEL (rat [13]): 15 ppm | LOAEL (rat [13]): > 375 ppm | NEL (rat [13]): < 15 ppm | NOAEL (rat [13]): ≥ 375 ppm | LOAEL (rabbit [14]; [36]): > 40 mg/kg/day | NEL (rabbit [14]; [36]): 14 mg/kg/day | NOAEL (rabbit [14]; [36]): ≥ 40 mg/kg/day | LEL (rabbit [14]; systemic / in life observation / body weight / body weight gain + systemic / in life observation / food consumption / food consumption): 24 mg/kg/day | LOAEL (rat [15]; [38]): > 600 mg/kg/day | NOAEL (rat [15]; [38]): ≥ 600 mg/kg/day | LEL (rat [15]; [39]): 60 mg/kg/day | NEL (rat [15]; [39]): < 60 mg/kg/day | LOAEL (mouse [16]; [31]): 475 mg/kg/day | LEL (mouse [16]; [40]): 475 mg/kg/day | NEL (mouse [16]; [40]): 300 mg/kg/day | NOAEL (mouse [16]; [40]): 300 mg/kg/day | LOAEL (rat [17]; [41]): > 200 mg/kg/day | NOAEL (rat [17]; [41]): ≥ 200 mg/kg/day | LEL (rat [17]; [42]): 10 mg/kg/day | NEL (rat [17]; [42]): < 10 mg/kg/day | LOAEL (rat [18]; [41]): 50 mg/kg/day | NOAEL (rat [18]; [41]): 25 mg/kg/day | LEL (rat [18]; [43]): 25 mg/kg/day | NEL (rat [18]; [43]): < 25 mg/kg/day | LEL (rat [19]): 40 mg/kg/day | LOAEL (rat [19]): > 400 mg/kg/day | NEL (rat [19]): < 40 mg/kg/day | NOAEL (rat [19]): ≥ 400 mg/kg/day

CNC(=O)ON=C(C)SC [Methomyl]
NEL (rat [20]; [44]): 2.5 mg/kg/day | NOAEL (rat [20]; [44]): 2.5 mg/kg/day | LOAEL (rat [20]; systemic / in life observation / body weight / body weight gain + systemic / pathology microscopic / bone marrow / hyperplasia): 12.5 mg/kg/day | LEL (rat [20]; systemic / in life observation / body weight / body weight gain + systemic / pathology microscopic / bone marrow / hyperplasia + systemic / …): 12.5 mg/kg/day | LOAEL (rat [21]; group: offspring, systemic / in life observation / body weight / offspring (pup) weight + developmental / offspring survival late / [other] / [other]): 56.5 mg/kg/day | LEL (rat [21]; [45]): 6.9 mg/kg/day | NEL (rat [21]; [45]): < 6.9 mg/kg/day | NOAEL (rat [21]; group: offspring, systemic / in life observation / body weight / offspring (pup) weight + developmental / offspring survival late / lactation index / …): 6.9 mg/kg/day | LOAEL (rat [21]; group: parental, systemic / in life observation / body weight / body weight + systemic / in life observation / food consumption / food consumption): 36.9 mg/kg/day | NOAEL (rat [21]; group: parental, systemic / in life observation / body weight / body weight + systemic / in life observation / food consumption / food consumption + systemic…): 4.6 mg/kg/day | LEL (rat [21]; [46]): 6.9 mg/kg/day | NEL (rat [21]; [46]): < 6.9 mg/kg/day | LEL (dog; [47]): 10 mg/kg/day | LOAEL (dog; [47]): 10 mg/kg/day | NEL (dog; [48]): 2.5 mg/kg/day | NOAEL (dog; [48]): 2.5 mg/kg/day | NEL (rat [22]; [41]): 5 mg/kg/day | LOAEL (rat [22]; [44]): 20 mg/kg/day | NOAEL (rat [22]; [44]): 5 mg/kg/day | LEL (rat [22]; systemic / in life observation / body weight / body weight gain + systemic / hematology / erythrocyte (rbc) count differential / erythrocyte…): 20 mg/kg/day
